Calls of active or inactive are those of the source. No cut-off for these calls is given here.
What was measured:
3T3-L1 [1] = assay: Anti-adipogenic activity in mouse 3T3L1 adipocytes assessed as inhibition of insulin/dexamethasone/isobutylmethylxanthine induced-triglyceride accumulation at 1.5 ug/ml treated every 2 days following compound washout for 8 days by ELISA relative to control; format: functional
[2] = molecular target: T1, 5'-AMP-activated protein kinase (Mus musculus) (UniProt Q5EG47+Q8BRK8+Q6PAM0+O54950+Q91WG5+Q9R078+Q8BGM7); assay: Activation of AMPK phosphorylation at […] residue in mouse 3T3L1 adipocytes in DMI differentiation media in presence of AMPK inhibitor compound C by Western blot analysis; format: cell-based; conditions: 3T3-L1
[3] = molecular target: T1, 5'-AMP-activated protein kinase (Mus musculus); assay: Activation of AMPK in mouse 3T3L1 adipocytes in DMI differentiation media assessed as decrease in C/EBPbeta mRNA expression after 4 days by RP-PCR analysis; format: cell-based; conditions: 3T3-L1
[4] = molecular target: AMP-activated protein kinase, AMPK (Homo sapiens) (UniProt P54646+O43741+P54619+Q9UGJ0+Q9Y478+Q13131+Q9UGI9); assay: Activation of AMPK (unknown origin) at 0.4 to 1.5 ug/ml; format: protein-complex assay
[5] = molecular target: T1, 5'-AMP-activated protein kinase (Mus musculus); assay: Activation of AMPK in mouse 3T3L1 adipocytes in DMI differentiation media assessed as decrease in PPARgamma expression at 1.5 ug/ml after 6 days in presence of AMPK inhibitor compound C by Western blot analysis; format: cell-based; conditions: 3T3-L1
[6] = molecular target: T1, 5'-AMP-activated protein kinase (Mus musculus); assay: Activation of AMPK in mouse 3T3L1 adipocytes in DMI differentiation media assessed as increase in ACC phosphorylation after 4 to 8 days by Western blot analysis; format: cell-based; conditions: 3T3-L1
[7] = molecular target: T1, 5'-AMP-activated protein kinase (Mus musculus); assay: Activation of AMPK in mouse 3T3L1 adipocytes in DMI differentiation media at 1.5 ug/ml after 24 hrs in presence of AMPK inhibitor compound C by Western blot analysis; format: cell-based; conditions: 3T3-L1
[8] = molecular target: T1, 5'-AMP-activated protein kinase (Mus musculus); assay: Activation of AMPK in mouse 3T3L1 adipocytes in DMI differentiation media assessed as decrease in LPL expression after 4 to 8 days by Western blot analysis; format: cell-based; conditions: 3T3-L1
[9] = molecular target: T1, 5'-AMP-activated protein kinase (Mus musculus); assay: Activation of AMPK in mouse 3T3L1 adipocytes in DMI differentiation media assessed as decrease in C/EBPalpha expression after 4 to 8 days by Western blot analysis; format: cell-based; conditions: 3T3-L1
[10] = molecular target: T1, 5'-AMP-activated protein kinase (Mus musculus); assay: Activation of AMPK in mouse 3T3L1 adipocytes in DMI differentiation media assessed as decrease in PPARgamma mRNA expression after 4 days by RP-PCR analysis; format: cell-based; conditions: 3T3-L1
[11] = molecular target: T1, 5'-AMP-activated protein kinase (Mus musculus); assay: Activation of AMPK in mouse 3T3L1 adipocytes in DMI differentiation media assessed as decrease in PPARgamma expression after 4 to 8 days by Western blot analysis; format: cell-based; conditions: 3T3-L1
3T3-L1 [12] = assay: Anti-adipogenic activity in mouse 3T3L1 preadipocytes assessed as inhibition of insulin/dexamethasone/isobutylmethylxanthine induced-cell differentiation treated every 2 days following compound washout for 8 days by Oil-red O staining based assay; format: functional
[13] = molecular target: T1, 5'-AMP-activated protein kinase (Mus musculus); assay: Activation of AMPK in mouse 3T3L1 adipocytes in DMI differentiation media assessed as decrease in FAS expression after 4 to 8 days by Western blot analysis; format: cell-based; conditions: 3T3-L1
3T3-L1 [14] = assay: Effect on total AMPK expression in mouse 3T3L1 adipocytes in DMI differentiation media at 0.4 to 1.5 ug/ml after 4 to 8 days by Western blot analysis; format: ADME, cell-based
3T3-L1 [15] = assay: Induction of morphological changes in mouse 3T3L1 cells; format: cell-based
3T3-L1 [16] = assay: Anti-adipogenic activity in mouse 3T3L1 adipocytes assessed as inhibition of insulin/dexamethasone/isobutylmethylxanthine induced-triglyceride accumulation at 0.4 ug/ml treated every 2 days following compound washout for 8 days by ELISA relative to control; format: functional
[17] = molecular target: T1, 5'-AMP-activated protein kinase (Mus musculus); assay: Activation of AMPK in mouse 3T3L1 adipocytes in DMI differentiation media assessed as decrease in C/EBPbeta expression after 4 to 8 days by Western blot analysis; format: cell-based; conditions: 3T3-L1
[18] = molecular target: T1, 5'-AMP-activated protein kinase (Mus musculus); assay: Activation of AMPK in mouse 3T3L1 adipocytes in DMI differentiation media assessed as increase in ACC phosphorylation in presence of AMPK inhibitor compound C by Western blot analysis; format: cell-based; conditions: 3T3-L1
3T3-L1 [19] = assay: Cytotoxicity against mouse 3T3L1 cells assessed as effect on cell viability up to 1.5 ug/ml after 4 to 8 days by MTT assay; format: cell-based
[20] = molecular target: T1, 5'-AMP-activated protein kinase (Mus musculus); assay: Activation of AMPK phosphorylation at […] residue in mouse 3T3L1 adipocytes in DMI differentiation media after 4 to 8 days by Western blot analysis; format: cell-based; conditions: 3T3-L1
3T3-L1 [21] = assay: Anti-adipogenic activity in mouse 3T3L1 preadipocytes assessed as inhibition of insulin/dexamethasone/isobutylmethylxanthine induced-lipid accumulation treated every 2 days following compound washout for 8 days by Oil-red O staining based assay; format: functional, cell-based
[22] = molecular target: T1, 5'-AMP-activated protein kinase (Mus musculus); assay: Activation of AMPK in mouse 3T3L1 adipocytes in DMI differentiation media assessed as decrease in C/EBPalpha mRNA expression after 4 days by RP-PCR analysis; format: cell-based; conditions: 3T3-L1
[23] = molecular target: T1, 5'-AMP-activated protein kinase (Mus musculus); assay: Activation of AMPK in mouse 3T3L1 adipocytes in DMI differentiation media assessed as decrease in C/EBPbeta expression at 1.5 ug/ml after 24 hrs in presence of AMPK inhibitor compound C by Western blot analysis; format: cell-based; conditions: 3T3-L1
[24] = molecular target: T1, 5'-AMP-activated protein kinase (Mus musculus); assay: Activation of AMPK in mouse 3T3L1 adipocytes in DMI differentiation media assessed as decrease in aP2 expression after 4 to 8 days by Western blot analysis; format: cell-based; conditions: 3T3-L1
[25] = molecular target: T1, 5'-AMP-activated protein kinase (Mus musculus); assay: Activation of AMPK in mouse 3T3L1 adipocytes in DMI differentiation media at 0.4 to 1.5 ug/ml after 8 days by Western blot analysis; format: cell-based; conditions: 3T3-L1
[26] = molecular target: T1, 5'-AMP-activated protein kinase (Mus musculus); assay: Activation of AMPK in mouse 3T3L1 adipocytes in DMI differentiation media assessed as decrease in C/EBPalpha expression at 1.5 ug/ml after 6 days in presence of AMPK inhibitor compound C by Western blot analysis; format: cell-based; conditions: 3T3-L1

C=C(C)[C@H]1Cc2c(ccc3c2O[C@@H]2COc4cc(OC)c(OC)cc4[C@@H]2[C@@]32CO2)O1 [ROTENOISIN A]
inhibition at 1.5 µg/mL (3T3-L1 [1]): 57%
Activity [2]: inactive
Activity [3]: Dose-dependent effect
Activity [4]: inactive
Activity [5]: inactive
Activity [6]: Dose-dependent effect
Activity [7]: inactive
Activity [8]: Dose-dependent effect
Activity [9]: Dose-dependent effect
Activity [10]: Dose-dependent effect
Activity [11]: Dose-dependent effect
inhibition (3T3-L1 [12]): Dose-dependent effect
Activity [13]: Dose-dependent effect
Activity (3T3-L1 [14]): Non-Toxic
Activity (3T3-L1 [15]): Non-Toxic
inhibition at 0.4 µg/mL (3T3-L1 [16]): 23%
Activity [17]: Dose-dependent effect
Activity [18]: inactive
Activity (3T3-L1 [19]): Non-Toxic
Activity [20]: Dose-dependent effect
inhibition (3T3-L1 [21]): Dose-dependent effect
Activity [22]: Dose-dependent effect
Activity [23]: inactive
Activity [24]: Dose-dependent effect
Activity [25]: Active
Activity [26]: inactive
